ChEMBL document CHEMBL1201862, “PubChem BioAssay data set” (2004)
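Assay format: 96-well plates, 48-hour exposure. The concentration for 50% growth inhibition is given as GI50.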 Active and inactive are the calls of the source. No stated cut-off is given here; in the data, active = GI50 up to about 1.1 µM and inactive = higher.

Tests used:
Test in all cases: growth of human tumour cells (NCI), 48 h
RXF 393 = system: RXF 393
A498 = system: A498
SNB-75 = system: SNB-75
HOP-92 = system: HOP-92
HCT-116 = system: HCT-116
A549 = system: A549
SF-539 = system: SF-539
NCI-H226 = system: NCI-H226
HCC 2998 = system: HCC 2998
NCI-H460 = system: NCI-H460
NCI-H522 = system: NCI-H522
RPMI-8226 = system: RPMI-8226
OVCAR-3 = system: OVCAR-3
EKVX = system: EKVX
SK-MEL-5 = system: SK-MEL-5
NCI-H23 = system: NCI-H23
HT-29 = system: HT-29
OVCAR-8 = system: OVCAR-8

Measured: GI50

CN1C(c2ccccc2)CC(=NO)CC1c1ccccc1 (stereo not given)
inactive: RXF 393 62.5 µM | A498 82 µM | SNB-75 59.7 µM | HOP-92 92.7 µM | HCT-116 19.3 µM | A549 40.9 µM | SF-539 41.2 µM | NCI-H226 74 µM | HCC 2998 97.5 µM | NCI-H460 60 µM | NCI-H522 25.6 µM | RPMI-8226 24 µM | OVCAR-3 39.9 µM | EKVX > 100 µM | SK-MEL-5 38.2 µM | NCI-H23 89.1 µM | HT-29 35.9 µM | OVCAR-8 47.4 µM

CCOC(=O)C1C(=O)CC(=O)C2CCCCC21 (stereo not given)
inactive: RXF 393 > 100 µM | A498 > 100 µM | SNB-75 > 100 µM | HOP-92 > 100 µM | HCT-116 > 100 µM | A549 > 100 µM | SF-539 > 100 µM | NCI-H460 > 100 µM | NCI-H522 > 100 µM | RPMI-8226 > 100 µM | OVCAR-3 > 100 µM | EKVX > 100 µM | SK-MEL-5 > 100 µM | NCI-H23 > 100 µM | OVCAR-8 > 100 µM

CC(C)(C)c1cc(CCCCCCCC2(CCCCCCCc3cc(C(C)(C)C)cc(C(C)(C)C)c3)OC(COCCOCCCCCC#N)C(COCCOCCCCCC#N)O2)cc(C(C)(C)C)c1 (stereo not given)
inactive: RXF 393 3.78 µM | A498 > 100 µM | SNB-75 > 100 µM | HOP-92 > 100 µM | HCT-116 > 100 µM | A549 > 100 µM | NCI-H226 > 100 µM | HCC 2998 > 100 µM | NCI-H460 > 100 µM | NCI-H522 > 100 µM | OVCAR-3 > 100 µM | EKVX > 100 µM | SK-MEL-5 > 100 µM | NCI-H23 > 100 µM | HT-29 > 100 µM | OVCAR-8 > 100 µM

CC(=O)O/N=C(Cl)/C(Cl)=N/OC(C)=O
inactive: RXF 393 > 100 µM | A498 > 100 µM | SNB-75 > 100 µM | HOP-92 > 100 µM | HCT-116 > 100 µM | A549 > 100 µM | SF-539 > 100 µM | NCI-H226 > 100 µM | HCC 2998 > 100 µM | NCI-H460 > 100 µM | NCI-H522 > 100 µM | RPMI-8226 > 100 µM | EKVX > 100 µM | NCI-H23 > 100 µM | HT-29 > 100 µM | OVCAR-8 > 100 µM

C#CC1(O)CCC2[C@@H]3CCc4cc(Oc5nc(F)nc(-c6c7ccccc7c(SCC)n6CCC)n5)ccc4C3CC[C@@]21C (stereo not given in full)
inactive: RXF 393 21.6 µM | A498 > 100 µM | HOP-92 > 100 µM | HCT-116 29.2 µM | A549 > 100 µM | SF-539 58.9 µM | NCI-H226 20.6 µM | HCC 2998 > 100 µM | NCI-H460 > 100 µM | NCI-H522 > 10 µM | RPMI-8226 57.3 µM | OVCAR-3 > 100 µM | EKVX 59.6 µM | SK-MEL-5 63.8 µM | NCI-H23 25 µM | HT-29 > 100 µM | OVCAR-8 > 100 µM

N/C(=N\O)N/N=C/c1cccs1
inactive: RXF 393 > 100 µM | A498 > 100 µM | SNB-75 20 µM | HOP-92 > 100 µM | HCT-116 > 100 µM | A549 23.9 µM | SF-539 > 100 µM | NCI-H226 57.1 µM | HCC 2998 33.4 µM | NCI-H460 33.7 µM | NCI-H522 25.1 µM | OVCAR-3 34.9 µM | EKVX 23.7 µM | NCI-H23 > 100 µM | HT-29 45.1 µM | OVCAR-8 71.9 µM

O=c1oc2cc(O)ccc2c2[nH]c3cc(O)ccc3c12
inactive: RXF 393 20.6 µM | A498 36.1 µM | SNB-75 16.3 µM | HOP-92 32.1 µM | HCT-116 17.4 µM | A549 42.7 µM | SF-539 18.9 µM | NCI-H226 21.4 µM | HCC 2998 22.5 µM | NCI-H460 33 µM | NCI-H522 11.7 µM | RPMI-8226 78 µM | OVCAR-3 20.7 µM | EKVX 26.5 µM | NCI-H23 24.5 µM | HT-29 35.1 µM | OVCAR-8 27.2 µM

COc1cc(Cn2c3ccccc3c3cc(C)c4c(c32)C=CC(C)(CCC=C(C)C)O4)cc2c1[nH]c1ccccc12 (stereo not given) [CHRESTFOLINE C]
inactive: RXF 393 > 100 µM | A498 > 100 µM | SNB-75 > 100 µM | HOP-92 > 100 µM | HCT-116 > 100 µM | A549 > 100 µM | SF-539 > 100 µM | HCC 2998 > 100 µM | NCI-H460 > 100 µM | NCI-H522 > 100 µM | RPMI-8226 > 100 µM | OVCAR-3 > 100 µM | EKVX > 100 µM | SK-MEL-5 > 100 µM | NCI-H23 > 100 µM | HT-29 > 100 µM | OVCAR-8 > 100 µM

COc1cc2c(cc1OC)C1(c3ccc(Cl)cc3)ON=C(c3ccccc3)N1CS2 (stereo not given)
inactive: RXF 393 21.2 µM | A498 83.2 µM | SNB-75 > 100 µM | HOP-92 44.8 µM | HCT-116 6.37 µM | A549 > 100 µM | SF-539 > 100 µM | NCI-H226 > 100 µM | HCC 2998 > 100 µM | NCI-H460 92 µM | NCI-H522 58.9 µM | RPMI-8226 48.1 µM | OVCAR-3 > 100 µM | EKVX > 100 µM | SK-MEL-5 > 100 µM | NCI-H23 > 100 µM | HT-29 15.5 µM

O=[N+]([O-])c1cc(/C=N\NS(=O)(=O)c2ccc(Cl)cc2)c(O)c([N+](=O)[O-])c1
inactive: RXF 393 32.8 µM | A498 35.7 µM | SNB-75 24.9 µM | HOP-92 36.3 µM | HCT-116 30.1 µM | A549 37.8 µM | SF-539 23.3 µM | HCC 2998 85.7 µM | NCI-H460 21 µM | NCI-H522 24.5 µM | RPMI-8226 19 µM | OVCAR-3 24.4 µM | EKVX > 100 µM | SK-MEL-5 27.8 µM | NCI-H23 22.2 µM | HT-29 24.9 µM | OVCAR-8 23 µM

O=C(N/C(=C\c1c(O)ccc2ccccc12)c1nc2ccccc2[nH]1)c1ccccc1
inactive: RXF 393 22.1 µM | A498 38.2 µM | SNB-75 18.8 µM | HOP-92 > 100 µM | HCT-116 > 100 µM | A549 > 100 µM | SF-539 29.1 µM | HCC 2998 > 100 µM | NCI-H460 > 100 µM | NCI-H522 > 100 µM | RPMI-8226 > 100 µM | OVCAR-3 > 100 µM | EKVX > 100 µM | SK-MEL-5 > 100 µM | NCI-H23 87.1 µM | HT-29 > 100 µM | OVCAR-8 54.8 µM

COC(=O)N/N=c1\cc(C(=O)Nc2ccc(C)c(C)c2)oc2cc(O)ccc12
inactive: RXF 393 > 100 µM | A498 > 100 µM | SNB-75 > 100 µM | HOP-92 > 100 µM | HCT-116 > 100 µM | A549 > 100 µM | SF-539 > 100 µM | NCI-H226 > 100 µM | HCC 2998 > 100 µM | NCI-H460 > 100 µM | NCI-H522 > 100 µM | OVCAR-3 > 100 µM | EKVX > 100 µM | SK-MEL-5 > 100 µM | NCI-H23 > 100 µM | HT-29 > 100 µM | OVCAR-8 > 100 µM
